From patent publication US12606533B2, “3-phenylpropylamine derivative” (DAIICHI SANKYO COMPANY, LIMITED, priority 2023, dated 2026)

Tests used:
[1] = target: T1, SF-1 (Homo sapiens, UniProt Q13285); experiment: SF1 degradation induction in NCI-H295R SF-1-HiBiT cells (HiBiT DC50); format: cell-based; conditions: 24 hr, concentration that induces 50% degradation of SF-1
T1 construct: NCI-H295R SF-1-HiBiT cells with HiBiT tag knocked in at the endogenous SF1 locus; host or cells: NCI-H295R SF-1-HiBiT (knock-in at endogenous locus)
Protocol: NCI-H295R SF-1-HiBiT cells were seeded in a 384-well plate (Thermo Fisher Scientific Inc.) at 1×10^4 cells/50 μL/well and cultured at 37° C. in a 5% CO2 incubator for 24 hr. DMSO solutions of each compound were serially diluted with DMSO using a D300e Digital Dispenser (TECAN), added to a 384-well plate, and cultured in a 5% CO2 incubator at 37° C. for 24 hr. […] After completion of culture, the medium was discarded, and Nano-Glo (registered trade mark) HiBiT Lytic Detection System (Promega, Cat. No. N3040) was added at 20 μL/well and stirred with a plate mixer. Luminescence signals were then detected using a multimode plate reader (EnVision Xcite, PerkinElmer). The SF-1 protein degradation rate was calculated from the amount of luminescence (C) in the compound-free group and the amount of luminescence (T) in the compound-added group, based on the following formula.
The obtained data was analyzed using GraphPad Prism9 (GraphPad Software Inc.) or Genedata Screener (Genedata AG) to calculate the concentration that induces 50% degradation of SF-1 (DC50 value).

[2] = tested on: NCI-H295R cells; experiment: Proliferation inhibitory action on NCI-H295R (CellTiter-Glo, 7 days); format: cell-based, human; conditions: Homo sapiens, NCI-H295R, 168 h
Protocol: DMSO solutions of each compound were serially diluted with DMSO using a D300e Digital Dispenser (TECAN), and added to a 384-well plate (Thermo Fisher Scientific Inc.). NCI-H295R cells were seeded in a 384-well plate at 2×10^3 cells/40 μL/well and cultured for 7 days in a 37° C., 5% CO2 incubator. […] On the first day of culture (day 0) and the seventh day of culture (day 7), 10 μL/well of CellTiter-Glo (registered trademark) 2.0 Assay (Promega) was added, and the luminescence signal was detected using a multimode plate reader (EnVision, PerkinElmer). The cell proliferation rate was calculated from the luminescence amount on the day of compound addition (CO), the luminescence amount of the compound-free group after 7 days of culture (C7), and the luminescence amount of the compound-added group (T7), based on the following formula.

Molecule `COc1ccc([C@]2(CCN(Cc3ccc(C4=CC[C@H](CN5CCN(C(=O)c6ccc7c(c6)n(C)c(=O)n7C6CCC(=O)NC6=O)CC5)CC4)cc3)CC(C)(C)C(F)(F)F)CCOC(C)(C)C2)cc1` (stereo partly drawn) [BI2, 3-{5-[(4-{[(4R)-4′-{[{2-[(4R)-4-(4-Methoxyphenyl)-2,2-dimethyltetrahydro-2H-pyran-4-yl]ethyl)(3,3,3-trifluoro-2,2-dimethylpropyl)amino]methyl}-2,3,4,5-tetrahydro[biphenyl]-4-yl]methyl}piperazin-1-yl)carbonyl]-3-methyl-2-oxo-2,3-dihydro-1H-benzimidazol-1-yl}piperidine-2,6-dione] has a DC50 [1] of 11 nM and a GI50 [2] of 79 nM.
With `COc1ccc([C@]2(CCN(Cc3ccc(C4=CCC(CN5CCN(C(=O)c6cc7c(cn6)n(C6CCC(=O)NC6=O)c(=O)n7C)CC5)CC4)cc3)CC(C)(C)C(F)(F)F)CCOC(C)(C)C2)cc1` (stereo partly drawn) [BJ6, 3-[6-({4-[(4′-{[{2-[(4R)-4-(4-Methoxyphenyl)-2,2-dimethyltetrahydro-2H-pyran-4-yl]ethyl}(3,3,3-trifluoro-2,2-dimethylpropyl)amino]methyl}-2,3,4,5-tetrahydro[biphenyl]-4-yl)methyl]piperazin-1-yl}carbonyl)-1-methyl-2-oxo-1,2-dihydro-3H-imidazo[4,5-c]pyridin-3-yl]piperidine-2,6-dione] the DC50 [1] was 17 nM and the GI50 [2] was 97 nM.
With `COc1ccc([C@]2(CCN(Cc3ccc(C4=CC[C@@H](C(=O)N5CCC(Nc6ccc7c8c6CCCn8c(=O)n7C6CCC(=O)NC6=O)CC5)CC4)c(F)c3)CC(C)(C)C(F)(F)F)CCOC(C)(C)C2)cc1` (stereo partly drawn) [BL4, 3-{7-[(1-{[(4S)-2′-Fluoro-4′-{[{2-[(4R)-4-(4-methoxyphenyl)-2,2-dimethyltetrahydro-2H-pyran-4-yl]ethyl)(3,3,3-trifluoro-2,2-dimethylpropyl)amino]methyl}-2,3,4,5-tetrahydro[biphenyl]-4-yl]carbonyl}piperidin-4-yl)amino]-2-oxo-5,6-dihydro-4H-imidazo[4,5,1-ij]quinolin-1(2H)-yl}piperidine-2,6-dione] the DC50 [1] was 3.1 nM and the GI50 [2] was 43 nM.
`COc1ccc([C@]2(CCN(Cc3ccc(C4=CC[C@H](C(=O)N5CCC(Nc6ccc7c8c6OCCn8c(=O)n7C6CCC(=O)NC6=O)CC5)CC4)c(F)c3)CC(C)(C)C(F)(F)F)CCOC(C)(C)C2)cc1` (stereo partly drawn) [BM10, 3-{7-[(1-{[(4R)-2′-Fluoro-4′-{[{2-[(4R)-4-(4-methoxyphenyl)-2,2-dimethyltetrahydro-2H-pyran-4-yl]ethyl)(3,3,3-trifluoro-2,2-dimethylpropyl)amino]methyl}-2,3,4,5-tetrahydro[biphenyl]-4-yl]carbonyl}piperidin-4-yl)amino]-2-oxo-4,5-dihydroimidazo[1,5,4-de][1,4]benzoxazin-1(2H)-yl}piperidine-2,6-dione] showed a DC50 [1] of 2.2 nM and a GI50 [2] of 22 nM.
Work on `COc1ccc([C@]2(CCN(Cc3ccc(C4=CC[C@@H](C(=O)N5CCC(Nc6ccc7c8c6OCCn8c(=O)n7C6CCC(=O)NC6=O)CC5)CC4)c(F)c3)CC(C)(C)C(F)(F)F)CCOC(C)(C)C2)cc1` (stereo partly drawn) [BN2, 3-{7-[(1-{[(4S)-2′-Fluoro-4′-{[{2-[(4R)-4-(4-methoxyphenyl)-2,2-dimethyltetrahydro-2H-pyran-4-yl]ethyl}(3,3,3-trifluoro-2,2-dimethylpropyl)amino]methyl}-2,3,4,5-tetrahydro[biphenyl]-4-yl]carbonyl}piperidin-4-yl)amino]-2-oxo-4,5-dihydroimidazo[1,5,4-de][1,4]benzoxazin-1(2H)-yl}piperidine-2,6-dione] yielded a DC50 [1] of 2.3 nM and a GI50 [2] of 31 nM.
`COc1ccc([C@]2(CCN(Cc3ccc(C4=CC[C@H](C(=O)N5CCC(Nc6ccc7c(c6)CN(C6CCC(=O)NC6=O)C7=O)CC5)CC4)cc3)CC(C)(C)C(F)(F)F)CCOC(C)(C)C2)cc1` (stereo partly drawn) [BO4, 3-{5-[(1-{[(4R)-4′-{[{2-[(4R)-4-(4-Methoxyphenyl)-2,2-dimethyltetrahydro-2H-pyran-4-yl]ethyl)(3,3,3-trifluoro-2,2-dimethylpropyl)amino]methyl}-2,3,4,5-tetrahydro[biphenyl]-4-yl]carbonyl}piperidin-4-yl)amino]-1-oxo-1,3-dihydro-2H-isoindol-2-yl}piperidine-2,6-dione] showed a DC50 [1] of 15 nM and a GI50 [2] of 129 nM.
With `COc1ccc([C@]2(CCN(Cc3ccc(C4=CC[C@H](C(=O)N5CCN(Cc6cc(F)c7c(c6)n(C)c(=O)n7C6CCC(=O)NC6=O)CC5)CC4)cc3)CC(C)(C)C(F)(F)F)CCOC(C)(C)C2)cc1` (stereo partly drawn) [BP6, 3-{7-Fluoro-5-[(4-{[(4R)-4′-{[{2-[(4R)-4-(4-methoxyphenyl)-2,2-dimethyltetrahydro-2H-pyran-4-yl]ethyl}(3,3,3-trifluoro-2,2-dimethylpropyl)amino]methyl}-2,3,4,5-tetrahydro[biphenyl]-4-yl]carbonyl}piperazin-1-yl)methyl]-3-methyl-2-oxo-2,3-dihydro-1H-benzimidazol-1-yl}piperidine-2,6-dione] the DC50 [1] was 12 nM and the GI50 [2] was 71 nM.
`COc1ccc([C@]2(CCN(Cc3ccc(C4=CC[C@H](C(=O)N5CCN(Cc6ccc7c(c6)n(C)c(=O)n7C6CCC(=O)NC6=O)CC5)CC4)c(F)c3)CC(C)(C)C(F)(F)F)CCOC(C)(C)C2)cc1` (stereo partly drawn) [BQ4, 3-{5-[(4-{[(4R)-2′-Fluoro-4′-{[{2-[(4R)-4-(4-methoxyphenyl)-2,2-dimethyltetrahydro-2H-pyran-4-yl]ethyl}(3,3,3-trifluoro-2,2-dimethylpropyl)amino]methyl}-2,3,4,5-tetrahydro[biphenyl]-4-yl]carbonyl}piperazin-1-yl)methyl]-3-methyl-2-oxo-2,3-dihydro-1H-benzimidazol-1-yl}piperidine-2,6-dione] was tested, and the DC50 [1] was 4.5 nM and the GI50 [2] was 28 nM.
With `COc1ccc([C@]2(CCN(Cc3ccc(C4=CC[C@H](C(=O)N5CCC(Nc6ccc7c(c6)n(C)c(=O)n7C6CCC(=O)NC6=O)CC5)CC4)c(F)c3)CC(C)(C)C(F)(F)F)CCOC(C)(C)C2)cc1` (stereo partly drawn) [BR3, 3-{5-[(1-{[(4R)-2′-Fluoro-4′-{[{2-[(4R)-4-(4-methoxyphenyl)-2,2-dimethyltetrahydro-2H-pyran-4-yl]ethyl)(3,3,3-trifluoro-2,2-dimethylpropyl)amino]methyl}-2,3,4,5-tetrahydro[biphenyl]-4-yl]carbonyl}piperidin-4-yl)amino]-3-methyl-2-oxo-2,3-dihydro-1H-benzimidazol-1-yl}piperidine-2,6-dione] the DC50 [1] was 2.2 nM and the GI50 [2] was 23 nM.
`COc1ccc([C@]2(CCN(Cc3ccc(C4=CC[C@H](C(=O)N5CCC(Nc6ccc7c(c6)C(=O)N(C6CCC(=O)NC6=O)C7)CC5)CC4)cc3)CC(C)(C)C(F)(F)F)CCOC(C)(C)C2)cc1` (stereo partly drawn) [BS3, 3-{6-[(1-{[(4R)-4′-{[{2-[(4R)-4-(4-Methoxyphenyl)-2,2-dimethyltetrahydro-2H-pyran-4-yl]ethyl)(3,3,3-trifluoro-2,2-dimethylpropyl)amino]methyl}-2,3,4,5-tetrahydro[biphenyl]-4-yl]carbonyl}piperidin-4-yl)amino]-1-oxo-1,3-dihydro-2H-isoindol-2-yl}piperidine-2,6-dione] gave a DC50 [1] of 14 nM and a GI50 [2] of 70 nM.
`COc1ccc([C@]2(CCN(Cc3ccc(C4=CC[C@H](C(=O)N5CCC(Nc6cc7c(cc6F)n(C6CCC(=O)NC6=O)c(=O)n7C)CC5)CC4)cc3)CC(C)(C)C(F)(F)F)CCOC(C)(C)C2)cc1` (stereo partly drawn) [BT6, 3-{6-Fluoro-5-[(1-{[(4R)-4′-{[{2-[(4R)-4-(4-methoxyphenyl)-2,2-dimethyltetrahydro-2H-pyran-4-yl]ethyl}(3,3,3-trifluoro-2,2-dimethylpropyl)amino]methyl}-2,3,4,5-tetrahydro[biphenyl]-4-yl]carbonyl}piperidin-4-yl)amino]-3-methyl-2-oxo-2,3-dihydro-1H-benzimidazol-1-yl}piperidine-2,6-dione] showed a DC50 [1] of 3.5 nM and a GI50 [2] of 48 nM.
In the case of `COc1ccc([C@]2(CCN(Cc3ccc(C4=CC[C@H](CN5CCN(C(=O)c6ccc7c8c6OCCn8c(=O)n7C6CCC(=O)NC6=O)CC5)CC4)cc3)CC(C)(C)C(F)(F)F)CCOC(C)(C)C2)cc1` (stereo partly drawn) [BU6, 3-{7-[(4-{[(4R)-4′-{[{2-[(4R)-4-(4-Methoxyphenyl)-2,2-dimethyltetrahydro-2H-pyran-4-yl]ethyl}(3,3,3-trifluoro-2,2-dimethylpropyl)amino]methyl}-2,3,4,5-tetrahydro[biphenyl]-4-yl]methyl}piperazin-1-yl)carbonyl]-2-oxo-4,5-dihydroimidazo[1,5,4-de][1,4]benzoxazin-1(2H)-yl}piperidine-2,6-dione], the DC50 [1] is reported as 18 nM and the GI50 [2] is reported as 64 nM.
